Reference: ChEMBL document CHEMBL2331460, “Glycosidic carbonic anhydrase IX inhibitors: a sweet approach against cancer” (Bioorg Med Chem, 2013)

Assays:
Homo sapiens [1] = species: Homo sapiens; assay: Selectivity ratio of Ki for human carbonic anhydrase 2 to Ki for human carbonic anhydrase 9
Carbonic anhydrase 9 = Carbonic anhydrase 9 (Homo sapiens, UniProt Q16790); assay: Inhibition of human carbonic anhydrase 9 preincubated for 15 mins by CO2 hydration stopped-flow assay
Homo sapiens [2] = species: Homo sapiens; assay: Selectivity ratio of Ki for human carbonic anhydrase 1 to Ki for human carbonic anhydrase 9
Carbonic anhydrase 2 = Carbonic anhydrase 2 (Homo sapiens, UniProt P00918); assay: Inhibition of human carbonic anhydrase 2 preincubated for 15 mins by CO2 hydration stopped-flow assay

Ki (Carbonic anhydrase 2) [nM]	SMILES	Ratio Ki (Homo sapiens [1])	Ki (Carbonic anhydrase 9) [nM]	Ratio Ki (Homo sapiens [2])
–	C[C@@H]1O[C@@H](NS(N)(=O)=O)[C@@H](O)[C@H](O)[C@H]1O	7	900	–
–	CC(=O)OC[C@H]1O[C@@H](NS(N)(=O)=O)[C@H](OC(C)=O)[C@@H](OC(C)=O)[C@H]1OC(C)=O	< 17	5	480
–	CC(=O)OC[C@H]1O[C@H](NS(N)(=O)=O)C=C[C@@H]1OC(C)=O	–	9	–
–	CC(=O)OC[C@H]1O[C@@H](NS(N)(=O)=O)[C@@H](OC(C)=O)[C@@H](OC(C)=O)[C@@H]1OC(C)=O	< 17	–	480
11.3	NS(=O)(=O)OC[C@H]1O[C@H](OC[C@H]2[C@H](O)[C@@H](O)[C@H](O)O[C@@H]2CO)[C@H](O)[C@@H](O)[C@@H]1O	–	–	–
–	CC(=O)OC[C@H]1O[C@@H](NS(N)(=O)=O)[C@H](OC(C)=O)[C@@H](OC(C)=O)[C@@H]1OC(C)=O	< 17	5	480
